Results published in patent US20060030616A1, “Anhydride modified cantharidin analogues useful in the treatment of cancer” (priority 1998, published 2006).

Tests used:
HL60 cells = test: Checkpoint abrogation after 6 Gy radiation, flow cytometry; assay type: cell-based, human; settings: 12 h after drug
Protocol: (§1) The cells are fixed in 70% ethanol and stored at −20° C. until analysis is performed (1-2 weeks). After fixing, the cells are pelleted and incubated in PBS containing propidium iodide ([…]) and RNase A (200 mg/ml) for at least 30 min at room temperature. The samples (2×10^4 events) are analysed using a Becton Dickson FACScan, fluorescence is collected in fluorescence detector 2 (FL2), filter 575/30 nm band pass. Cell cycle distribution is assessed using Cell Quest software (Becton Dickson).
(§2) The ability of the protein phosphatase inhibitors to abrogate the G1 or G2 checkpoint of the cell cycle may be determined by cell cycle analysis using flow cytometry. Briefly, asynchronous cell cultures are harvested 18 h after 6 Gy irradiation and/or 12 h incubation with the protein phosphatase inhibitor. Depending upon the p53 status of the cell line, radiation treatment alone will induce arrest in either G1 and/or G2 phase of the cell cycle.
(§3) If the protein phosphatase inhibitor abrogates the G2 checkpoint then the cells will not arrest in the G2 phase of the cell cycle and the cells will continue through the cell cycle and accumulate in the G1 phase of the cell cycle only. Similarily if the protein phosphatase inhibitors abrogates the G1 checkpoint then the cells will not arrest in the G1 phase of the cell cycle and accumulate in the G2 phase of the cell cycle only. Cell cycle analysis using propidium iodide labelling of DNA has been used extensively in our laboratory to assess the effect of specific anticancer agents that induce S-phase cell cycle arrest and apoptotic cell death (Sakoff, Ackland and Stewart, 1998). Experiments were performed on a Becton Dickinson FACScan and using Cell Quest software.
(§4) The cells were treated with 6 Gy of radiation and then treated with cantharidin 6 h later. The ability to abrogate cell cycle arrest was assessed is 12 h after the addition of the drugs.

HCT116 cells = test: as above; assay type: cell-based, human; settings: 12 h after drug
Protocol: as §1, §2, §3, §4

HT29 cells = test: as above; assay type: cell-based, human; settings: 12 h after drug
Protocol: as §1, §2, §3, §4

L1210 cells = test: as above; assay type: cell-based, murine; settings: 12 h after drug
Protocol: as §1, §2, §3, §4

nine cancer cell lines = test: MTT cytotoxicity assay, 72 h, ranges over cell line panel; assay type: cell-based; settings: nine cell lines, read-out: IC50 range across all cell lines tested
Protocol: Cells in a subconfluent phase are transferred to 96-well microtitre plates. L1210 cells are plated at a density of 1000 cells/well in 100 μl medium, while all other cell lines are plated at a density of 2000-25000 cells/well. The cells are left for 24 h prior to treatment to ensure exponential growth has been achieved, 24 h after plating (day 0), 100 μl of phosphatase inhibitor is added to each well, control wells received 100 μl of medium only. Drug exposure time is 72 h (day 3). The effect of phosphatase inhibition is tested in triplicate over a concentration range of […]−1×10^−8 M. Growth inhibitory effects are evaluated using the MTT assay and absorbance read at […]. The IC50 is the drug concentration at which cell growth is 50% inhibited based on the difference of optical density on day 0 and day 3 of drug exposure. Cytotoxicity is evaluated using a spectrophotometric assay which determines the percentage of cell growth following exposure of the cells to various concentrations of the phosphatase inhibitors for a period of 72 hours. The subsequent dose response curve is used to calculate IC50 values (the drug concentration at which cell growth is 50% inhibited).
Anti-cancer screening of the protein phosphatase inhibitors is assessed using the MTT assay. This assay determines cell viability by the ability of mitochondrial dehydrogenase to produce formazan crystals from 3-(4,5-dimethylthiazol-2-yl)-2,5-diphenyltetrazolium bromide. The viable cell number/well is directly proportional to the production of formazan, which following solubilization, can be measured spectrophotometrically (540 nm). This technique is also used by the National Cancer Institute to screen for new anticancer agents.
As described herein a number of cantharidin analogues have been synthesised and tested for their anticancer activity in nine cancer cell lines using the MTT assay after 72 h exposure. These new analogues are shown in FIG. 2 and have been designated MK-1 through to MK-9.

## O=C1OC(=O)C2C3C=CC(O3)C12 (stereo not drawn) [MK-2]
HL60 cells; HL60, 50 μM, 18 h after 6Gy
  Cell Cycle Distribution, G1: 6.1 percentage of total
  Cell Cycle Distribution, G2 + M: 85.5 percentage of total
  Cell Cycle Distribution, S: 2.8 percentage of total
  Cell Cycle Distribution, sub G: 5.9 percentage of total
HL60 cells; HL60, 100 μM, 18 h after 6Gy
  Cell Cycle Distribution, G1: 6.1 percentage of total
  Cell Cycle Distribution, G2 + M: 85.4 percentage of total
  Cell Cycle Distribution, S: 3.3 percentage of total
  Cell Cycle Distribution, sub G: 5.5 percentage of total
HL60 cells; HL60, 250 μM, 18 h after 6Gy
  Cell Cycle Distribution, G1: 5.4 percentage of total
  Cell Cycle Distribution, G2 + M: 83.9 percentage of total
  Cell Cycle Distribution, S: 2.8 percentage of total
  Cell Cycle Distribution, sub G: 8.1 percentage of total
HL60 cells; HL60, 500 μM, 18 h after 6Gy
  Cell Cycle Distribution, G1: 4.4 percentage of total
  Cell Cycle Distribution, G2 + M: 80.0 percentage of total
  Cell Cycle Distribution, S: 4.1 percentage of total
  Cell Cycle Distribution, sub G: 11.8 percentage of total
  Checkpoint remark: Cell Death
HL60 cells; HL60, 6 Gy
  Checkpoint abrogation: abrogated radiation induced G1 arrest
HCT116 cells; HCT116, 5 μM, 18 h after 6Gy
  Cell Cycle Distribution, G1: 30.8 percentage of total
  Cell Cycle Distribution, G2 + M: 57.2 percentage of total
  Cell Cycle Distribution, S: 7.9 percentage of total
  Cell Cycle Distribution, sub G: 3.7 percentage of total
HCT116 cells; HCT116, 50 μM, 18 h after 6Gy
  Cell Cycle Distribution, G1: 32.8 percentage of total
  Cell Cycle Distribution, G2 + M: 57.3 percentage of total
  Cell Cycle Distribution, S: 6.3 percentage of total
  Cell Cycle Distribution, sub G: 3.3 percentage of total
HCT116 cells; HCT116, 100 μM, 18 h after 6Gy
  Cell Cycle Distribution, G1: 29.9 percentage of total
  Cell Cycle Distribution, G2 + M: 59.6 percentage of total
  Cell Cycle Distribution, S: 7.2 percentage of total
  Cell Cycle Distribution, sub G: 3.1 percentage of total
HCT116 cells; HCT116, 250 μM, 18 h after 6Gy
  Cell Cycle Distribution, G1: 23.9 percentage of total
  Cell Cycle Distribution, G2 + M: 65.4 percentage of total
  Cell Cycle Distribution, S: 4.3 percentage of total
  Cell Cycle Distribution, sub G: 6.2 percentage of total
HCT116 cells; HCT116, 500 μM, 18 h after 6Gy
  Cell Cycle Distribution, G1: 15.4 percentage of total
  Cell Cycle Distribution, G2 + M: 73.0 percentage of total
  Cell Cycle Distribution, S: 4.9 percentage of total
  Cell Cycle Distribution, sub G: 6.4 percentage of total
  Checkpoint remark: G1 abrogation
HCT116 cells; HCT116, 6 Gy
  Checkpoint abrogation: abrogated radiation induced G1 arrest
HT29 cells; HT29, 5 μM, 18 h after 6Gy
  Cell Cycle Distribution, G1: 31.8 percentage of total
  Cell Cycle Distribution, G2 + M: 41.3 percentage of total
  Cell Cycle Distribution, S: 8.7 percentage of total
  Cell Cycle Distribution, sub G: 17.3 percentage of total
HT29 cells; HT29, 50 μM, 18 h after 6Gy
  Cell Cycle Distribution, G1: 35.4 percentage of total
  Cell Cycle Distribution, G2 + M: 44.7 percentage of total
  Cell Cycle Distribution, S: 8.8 percentage of total
  Cell Cycle Distribution, sub G: 10.3 percentage of total
HT29 cells; HT29, 100 μM, 18 h after 6Gy
  Cell Cycle Distribution, G1: 40.6 percentage of total
  Cell Cycle Distribution, G2 + M: 45.9 percentage of total
  Cell Cycle Distribution, S: 9.0 percentage of total
  Cell Cycle Distribution, sub G: 3.5 percentage of total
HT29 cells; HT29, 250 μM, 18 h after 6Gy
  Cell Cycle Distribution, G1: 24.9 percentage of total
  Cell Cycle Distribution, G2 + M: 59.4 percentage of total
  Cell Cycle Distribution, S: 12.3 percentage of total
  Cell Cycle Distribution, sub G: 2.7 percentage of total
HT29 cells; HT29, 500 μM, 18 h after 6Gy
  Cell Cycle Distribution, G1: 24.1 percentage of total
  Cell Cycle Distribution, G2 + M: 45.2 percentage of total
  Cell Cycle Distribution, S: 20.4 percentage of total
  Cell Cycle Distribution, sub G: 8.8 percentage of total
  Checkpoint remark: G1 abrogation
HT29 cells; HT29, 6 Gy
  Checkpoint abrogation: abrogated radiation induced G1 arrest
L1210 cells; L1210, 50 μM, 18 h after 6Gy
  Cell Cycle Distribution, G1: 19.0 percentage of total
  Cell Cycle Distribution, G2 + M: 50.1 percentage of total
  Cell Cycle Distribution, S: 27.8 percentage of total
  Cell Cycle Distribution, sub G1: 4.0 percentage of total
L1210 cells; L1210, 100 μM, 18 h after 6Gy
  Cell Cycle Distribution, G1: 18.4 percentage of total
  Cell Cycle Distribution, G2 + M: 55.8 percentage of total
  Cell Cycle Distribution, S: 23.0 percentage of total
  Cell Cycle Distribution, sub G1: 3.5 percentage of total
L1210 cells; L1210, 250 μM, 18 h after 6Gy
  Cell Cycle Distribution, G1: 11.2 percentage of total
  Cell Cycle Distribution, G2 + M: 71.9 percentage of total
  Cell Cycle Distribution, S: 10.0 percentage of total
  Cell Cycle Distribution, sub G1: 6.9 percentage of total
L1210 cells; L1210, 500 μM, 18 h after 6Gy
  Cell Cycle Distribution, G1: 3.4 percentage of total
  Cell Cycle Distribution, G2 + M: 88.4 percentage of total
  Cell Cycle Distribution, S: 2.9 percentage of total
  Cell Cycle Distribution, sub G1: 5.4 percentage of total
  Checkpoint remark: G1 abrogation
L1210 cells; L1210, 6 Gy
  Checkpoint abrogation: abrogated radiation induced G1 arrest
Nine cancer cell lines
  IC50: 157 to 248 µM
